Values of other authors in US20140113883A1, “Therapeutic micro nutrient composition for lipolysis and sclerosis” (priority 2008, published 2014).

Test system: red blood cells

Lysolecithin
hemolytic properties: strong hemolytic properties
